In patent publication US9611277B2 (Janssen Pharmaceutica NV, priority 2013, dated 2017):
Read-outs that look alike come from different tables or passages of the source.

Assays:
[1] = target: rat orexin 1 receptor (Rattus norvegicus, UniProt P56718); test: Rat orexin 1 receptor radioligand binding; conditions: read-out: rOX1 Ki
Outline: (§1)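 Competition binding with the tritiated thiazolyl-pyrrolidinyl-methanone radioligand in PBS on homogenized rat or human OX1R-expressing cell suspensions, ≤0.1% DMSO; nonspecific binding defined with 10 μM almorexant. Bound radioactivity read by scintillation after filtration; IC50 from one-site competition fit, converted to Ki using pre-determined radioligand Kd.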

[2] = target: human orexin 1 receptor (Homo sapiens, UniProt O43613); test: Human orexin 1 receptor radioligand binding; conditions: read-out: hOX1 Ki
Outline: as §1

[3] = target: human orexin 2 receptor (Homo sapiens (Human), UniProt O43614); test: Human orexin 2 receptor radioligand binding; conditions: read-out: hOX2 Ki
Outline: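 HEK293 cells stably expressing human OX2 receptor, homogenized, incubated with [3H]-EMPA and compounds (DMSO ≤0.1%); nonspecific binding with 10 μM almorexant. Filter-bound radioactivity counted by scintillation; IC50 from one-site competition fit of triplicates, Ki from IC50 and predetermined radioligand Kd, averaged over 2-20 runs.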

[4] = rat orexin 1 receptor, averages of 2-20 runs
[5] = human orexin 1 receptor, averages of 2-20 runs
[6] = human orexin 2 receptor, averages of 2-20 runs

Chain of human orexin 2 receptor (O43614 whole entry): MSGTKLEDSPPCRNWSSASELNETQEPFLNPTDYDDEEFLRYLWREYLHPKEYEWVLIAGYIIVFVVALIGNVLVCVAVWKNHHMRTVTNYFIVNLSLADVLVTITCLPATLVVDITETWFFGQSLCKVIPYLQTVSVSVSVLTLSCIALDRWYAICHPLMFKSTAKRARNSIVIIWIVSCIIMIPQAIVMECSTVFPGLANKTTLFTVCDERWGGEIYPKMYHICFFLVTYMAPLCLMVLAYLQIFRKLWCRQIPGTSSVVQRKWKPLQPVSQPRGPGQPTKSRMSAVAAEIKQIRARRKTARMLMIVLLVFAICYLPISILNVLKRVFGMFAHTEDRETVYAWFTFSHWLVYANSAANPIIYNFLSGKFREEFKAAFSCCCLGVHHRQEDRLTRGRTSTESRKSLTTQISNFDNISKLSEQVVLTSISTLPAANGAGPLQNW

| Ki [1, 4] [nM] | Ki [2, 5] [nM] | Ki [3, 6] [nM] | Molecule | Ki [1] [nM] | Ki [2] [nM] | Ki [3] [nM] |
| --- | --- | --- | --- | --- | --- | --- |
| 11 | 13 | 177 | O=C(c1c(F)cccc1-c1ncccn1)N1C[C@@H]2CC[C@H]1[C@H](Nc1cnc(C(F)(F)F)cn1)C2 [Example 279, (2-fluoro-6-(pyrimidin-2-yl)phenyl)((1S,4R,6R)-6-((5-(trifluoromethyl)pyrazin-2-yl)amino)-2-azabicyclo[2.2.2]octan-2-yl)methanone] |  |  |  |
| 7 | 4 | 189 | O=C(c1ccccc1-c1ncccn1)N1C[C@@H]2CC[C@H]1[C@H](Nc1cnc(C(F)(F)F)cn1)C2 [Example 280, (2-(pyrimidin-2-yl)phenyl)((1S,4R,6R)-6-((5-(trifluoromethyl)pyrazin-2-yl)amino)-2-azabicyclo[2.2.2]octan-2-yl)methanone] |  |  |  |
| 5 | 19 | 336 | O=C(c1cccc(F)c1-c1ncccn1)N1C[C@@H]2CC[C@H]1[C@H](Oc1ncc(C(F)(F)F)cc1Cl)C2 [Example 281, ((1S,4R,6R)-6-((3-chloro-5-(trifluoromethyl)pyridin-2-yl)oxy)-2-azabicyclo[2.2.2]octan-2-yl)(3-fluoro-2-(pyrimidin-2-yl)phenyl)methanone] |  |  |  |
| 81 | 65 | > 10000 | Cc1cnc(C(=O)N2C[C@@H]3CC[C@H]2[C@H](Oc2cnc(C(F)(F)F)cn2)C3)c(-c2ncccn2)c1 [Example 282, (5-methyl-3-(pyrimidin-2-yl)pyridin-2-yl)((1S,4R,6R)-6-((5-(trifluoromethyl)pyrazin-2-yl)oxy)-2-azabicyclo[2.2.2]octan-2-yl)methanone] |  |  |  |
| 21 | 27 | > 10000 | Cc1cnc(C(=O)N2C[C@@H]3CC[C@H]2[C@H](Oc2ncc(C(F)(F)F)cc2F)C3)c(-c2ncccn2)c1 [Example 283, ((1S,4R,6R)-6-((3-fluoro-5-(trifluoromethyl)pyridin-2-yl)oxy)-2-azabicyclo[2.2.2]octan-2-yl)(5-methyl-3-(pyrimidin-2-yl)pyridin-2-yl)methanone] |  |  |  |
| 45 | 47 | 5600 | O=C(c1cccc(F)c1-c1ncccn1)N1C[C@H]2C[C@@H](Oc3ncc(Cl)cn3)[C@@H]1C2 [Example 284, ((1S,4R,6R)-6-((5-chloropyrimidin-2-yl)oxy)-2-azabicyclo[2.2.1]heptan-2-yl)(3-fluoro-2-(pyrimidin-2-yl)phenyl)methanone] |  |  |  |
| 117 | 215 | 6000 | Cc1ccc(-c2ncccn2)c(C(=O)N2C[C@H]3C[C@@H](Oc4ncc(Cl)cn4)[C@@H]2C3)n1 [Example 285, ((1S,4R,6R)-6-((5-chloropyrimidin-2-yl)oxy)-2-azabicyclo[2.2.1]heptan-2-yl)(6-methyl-3-(pyrimidin-2-yl)pyridin-2-yl)methanone] |  |  |  |
| 155 | 226 | 2700 | O=C(c1ccccc1-n1nccn1)N1C[C@H]2C[C@@H](Oc3ccc4cccnc4n3)[C@@H]1C2 [Example 287, ((1S,4R,6R)-6-((1,8-naphthyridin-2-yl)oxy)-2-azabicyclo[2.2.1]heptan-2-yl)(2-(2H-1,2,3-triazol-2-yl)phenyl)methanone] |  |  |  |
| 97 | 188 | > 10000 | Cc1cnc(-c2ncccn2)c(C(=O)N2C[C@H]3C[C@@H](Oc4ccc(C(F)(F)F)cn4)[C@@H]2C3)c1 [Example 290, (5-methyl-2-(pyrimidin-2-yl)pyridin-3-yl)((1S,4R,6R)-6-((5-(trifluoromethyl)pyridin-2-yl)oxy)-2-azabicyclo[2.2.1]heptan-2-yl)methanone] |  |  |  |
| 43 | 82 | 4200 | Cc1noc(-c2cc(F)ccc2C(=O)N2C[C@H]3C[C@@H](Oc4ccc(C(F)(F)F)cn4)[C@@H]2C3)n1 [Example 291, (4-fluoro-2-(3-methyl-1,2,4-oxadiazol-5-yl)phenyl)((1S,4R,6R)-6-((5-(trifluoromethyl)pyridin-2-yl)oxy)-2-azabicyclo[2.2.1]heptan-2-yl)methanone] |  |  |  |
| 19 | 40 | 673 | O=C(c1c(F)cccc1-c1ncco1)N1C[C@H]2C[C@@H](Oc3ccc(C(F)(F)F)cn3)[C@@H]1C2 [Example 292, (2-fluoro-6-(oxazol-2-yl)phenyl)((1S,4R,6R)-6-((5-(trifluoromethyl)pyridin-2-yl)oxy)-2-azabicyclo[2.2.1]heptan-2-yl)methanone] |  |  |  |
| 16 | 26 | 535 | O=C(c1cc(F)ccc1-c1ncco1)N1C[C@H]2C[C@@H](Oc3ccc(C(F)(F)F)cn3)[C@@H]1C2 [Example 293] |  |  |  |
| 166 | 580 | 1400 | Cc1cnc(C(=O)N2C[C@H]3C[C@@H](Oc4ccc(C(F)(F)F)cn4)[C@@H]2C3)c(-n2ccnn2)c1 [Example 294] |  |  |  |
| 19 | 34 | 5800 | COc1ccc(C(=O)N2C[C@H]3C[C@@H](Oc4ccc(C(F)(F)F)cn4)[C@@H]2C3)c(-c2ncccn2)c1 [Example 295] |  |  |  |
| 8 | 14 | 474 | O=C(c1ncccc1-c1ncccn1)N1C[C@H]2C[C@@H](Oc3ccc(C(F)(F)F)cn3)[C@@H]1C2 [Example 296] |  |  |  |
| 10 | 10 | 606 | O=C(c1ccccc1-c1ncccn1)N1C[C@H]2C[C@@H](Oc3ccc(C(F)(F)F)cn3)[C@@H]1C2 [Example 297] |  |  |  |
| 24 | 29 | > 10000 | Cc1cnc(C(=O)N2C[C@H]3C[C@@H](Oc4ccc(C(F)(F)F)cn4)[C@@H]2C3)c(-c2ncccn2)c1 [Example 298] |  |  |  |
| 92 | 112 | 3700 | O=C(c1ccccc1-n1nccn1)N1C[C@H]2C[C@@H](Oc3ncc(Cl)cn3)[C@@H]1C2 [Example 300] |  |  |  |
| 9 | 7 | 456 | (3-fluoro-2-(pyrimidin-2-yl)phenyl)((1S,4R,6R)-6-((5-(trifluoromethyl)pyrazin-2-yl)amino)-2-azabicyclo[2.2.2]octan-2-yl)methanone [Example 80] |  |  |  |
|  |  |  | ((1S,4S,6R)-6-((5-chloropyrimidin-2-yl)amino)-2-azabicyclo[2.2.1]heptan-2-yl)(2-(5-fluoropyrimidin-2-yl)phenyl)methanone [Example 241] | 21 | 12 | 971 |

| Molecule | Ki [1, 4] [nM] | Ki [2, 5] [nM] | Ki [3, 6] [nM] | Ki [1] [nM] | Ki [2] [nM] | Ki [3] [nM] |
| --- | --- | --- | --- | --- | --- | --- |
| Cc1cnc(C(=O)N2C[C@H]3C[C@@H](Oc4ccc(C(F)F)cn4)[C@@H]2C3)c(-c2ncccn2)c1 [Example 288, ((1S,4R,6R)-6-((5-(difluoromethyl)pyridin-2-yl)oxy)-2-azabicyclo[2.2.1]heptan-2-yl)(5-methyl-3-(pyrimidin-2-yl)pyridin-2-yl)methanone] | 29 | 39 | 5100 |  |  |  |
| ((1S,4S,6R)-6-((5-chloropyrimidin-2-yl)amino)-2-azabicyclo[2.2.1]heptan-2-yl)(5-fluoro-2-(pyrimidin-2-yl)phenyl)methanone [Example 238] | 20 | 8 |  |  |  | 991 |
